The results in this text go back to patent publication US12178822B2, “Methods of treating hematological malignancies using 2-(2,6-dioxopiperidin-3-yl)-4-((2-fluoro-4-((3-morpholinoazetidin-1-yl)methyl)benzyl)amino)isoindoline-1,3-dion” (Celgene Corporation, priority 2019, dated 2024).

Type in all cases: cell-based
For one data set, the system named is SK-MM-1. As to the kind of experiment: Cell proliferation and viability / apoptosis flow cytometry assay, SK-MM-1. The settings on record: SK-MM-1 (MM, PCL); 120 hours. The method, then:
(§1) The following are examples of cell-based assays that can be used to determine the anti-proliferative activity and apoptotic effect of compounds described herein using exemplary hematological cell lines (Table 1). The in vitro growth inhibitory activity of Compound 1 described herein was evaluated using a 384-well flow cytometry assay.
(§2) The cell lines were plated under the conditions shown in Table 1 in 384-well flat bottom plates and incubated with increasing concentrations of compound ranging from 0.00015 to 10 μM or dimethyl sulfoxide (DMSO) control. The final concentration of DMSO was 0.1% (v/v). Following the addition of Compound 1 or DMSO and incubation for 120 hours, cell number and cell death were analyzed by flow cytometry (Attune®, Thermo Fisher) using Annexin V and the live-cell impermeant DNA dye, DRAQ7. […]
(§3) Flow cytometry data analysis was then performed using the Flow Jo_v10 software to determine the number of viable cells (Annexin V and DRAQ7 double negative staining cells) and percentage of apoptotic cells (Annexin V positive cells) for each condition. […] The IC50 (50% inhibitory concentration) and Emax (maximum efficacy achieved) values were then calculated by performing nonlinear regression curve fitting using log(inhibitor) vs. normalized response—variable slope analysis on GraphPad Prism 7.03. […]
A general note: A flow cytometer gives signals particle by particle.

The next data set has as its system SVSL/VL51. As to the kind of experiment: Cell proliferation and viability / apoptosis flow cytometry assay, SVSL. The following applies: SVSL (MZL, SMZL); 120 hours. The method, then: as §1, §2, §3
The next data set relates to L-591. As to the kind of experiment: Cell proliferation and viability / apoptosis flow cytometry assay, L-591. The settings on record: L-591 (HL); 120 hours. Here is the method: as §1, §2, §3
Another data set has as its system KOPN-8. As to the kind of experiment: Cell proliferation and viability / apoptosis flow cytometry assay, KOPN-8. The following applies: KOPN-8 (ALL); 120 hours. Here is the method: as §1, §2, §3
In a further data set the test system is Daudi. Briefly: Cell proliferation and viability / apoptosis flow cytometry assay, Daudi. The following applies: Daudi (BL); 120 hours. The method, then: as §1, §2, §3
For the next data set, the system named is HuT-102. As to the kind of experiment: Cell proliferation and viability / apoptosis flow cytometry assay, HuT-102. The settings on record: HuT-102 (TCL); 120 hours. Here is the method:
as §1, §2, §3

The subject of another data set is JJN-3. Briefly: Cell proliferation and viability / apoptosis flow cytometry assay, JJN-3. The following applies: JJN-3 (MM, PCL); 120 hours. The method, then: as §1, §2, §3
The subject of another data set is Karpas-299. Briefly: Cell proliferation and viability / apoptosis flow cytometry assay, Karpas-299. The following applies: Karpas-299 (TCL); 120 hours. Here is the method:
as §1, §2, §3

Another data set has as its system OPM-2. Briefly: Cell proliferation and viability / apoptosis flow cytometry assay, OPM-2. The following applies: OPM-2 (MM); 120 hours. The method, then:
as §1, §2, §3

The subject of the next data set is NCI-H929. Briefly: Cell proliferation and viability / apoptosis flow cytometry assay, NCI-H929. The following applies: NCI-H929 (MM); 120 hours. Here is the method:
as §1, §2, §3

Another data set relates to BL-41. As to the kind of experiment: Cell proliferation and viability / apoptosis flow cytometry assay, BL-41. The settings on record: 120 hours. Here is the method:
as §1, §2, §3

In a further data set the test system is MDS-L. As to the kind of experiment: Cell proliferation and viability / apoptosis flow cytometry assay, MDS-L. The settings on record: 120 hours. Here is the method:
as §1, §2, §3

A further data set has as its system HNT-34. Briefly: Cell proliferation and viability / apoptosis flow cytometry assay, HNT-34. The settings on record: HNT-34 (AML); 120 hours. The method, then: as §1, §2, §3
A further data set has as its system Karpas-231. As to the kind of experiment: Cell proliferation and viability / apoptosis flow cytometry assay, Karpas-231. The settings on record: Karpas-231 (ALL); 120 hours. The method, then: as §1, §2, §3
The next data set concerns L-363. Briefly: Cell proliferation and viability / apoptosis flow cytometry assay, L-363. The following applies: L-363 (MM, PCL); 120 hours. Here is the method:
as §1, §2, §3

Another data set relates to L-428. As to the kind of experiment: Cell proliferation and viability / apoptosis flow cytometry assay, L-428. The settings on record: L-428 (HL); 120 hours. The method, then: as §1, §2, §3

Molecules are shown by their SMILES.

For `O=C1CC[C@H](N2C(=O)c3cccc(NCc4ccc(CN5CC(N6CCOCC6)C5)cc4F)c3C2=O)C(=O)N1` [Compound 1, (S)-2-(2,6-dioxopiperidin-3-yl)-4-((2-fluoro-4-((3-morpholinoazetidin-1-yl)methyl)benzyl)amino)isoindoline-1,3-dione], the “% Viable Cells Emax (percentage of tumor cells remaining)” value in the data set with SK-MM-1 was 3%; with SVSL/VL51, 34.07%; with L-591, 34.6%; with KOPN-8, 38.3%; in the data set on Daudi it was 0%; in the data set on HuT-102 it was 36.34%. The “% Viable Cells Emax (percentage of tumor cells remaining)” value is listed as 21.6% with JJN-3; 8.43% with Karpas-299; 6.65% in the data set with OPM-2; 6.1% in the data set on NCI-H929; 96.65% in the data set on BL-41; 146.7% in the data set with MDS-L. Also, the “% Viable Cells Emax (percentage of tumor cells remaining)” value in the data set on HNT-34 was 20.47%; in the data set with Karpas-231, 0%; with L-363 it was 27.6%; in the data set on L-428, 47.3%.
